In patent publication US8574563B2 (Bristol-Myers Squibb Company, priority 2006, dated 2013):
Where two headings read alike, the source gives them in different places.

Test system: HCV 1b-377-neo replicon cells
Test: HCV replicon assay, HCV 1b-377-neo replicon cells (1b FRET)
Assay type: cell-based, Hepatitis C virus genotype 1b
Details: HCV 1b-377-neo replicon cells, HCV 1b genotype, read-out: EC50 range against HCV 1b (Table 2, Range)
Procedure, shortened: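 FRET-based replicon assay in HCV 1b-377-neo cells, including a comparison line carrying the NS5A Y2065H mutation that confers resistance to a reference compound.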

SMILES	EC50 (Hepatitis C virus)	EC50
CC(=O)N[C@@H](C(=O)N1CCC[C@H]1c1ncc(-c2ccc(-c3ccc(-c4cnc([C@@H]5CCCN5C(=O)[C@H](NC(C)=O)c5ccccc5)[nH]4)cc3)cc2)[nH]1)c1ccccc1 [Example 25, N,N′-(4,4′-biphenyldiylbis(1H-imidazole-5,2-diyl(2S)-2,1-pyrrolidinediyl((1R)-2-oxo-1-phenyl-2,1-ethanediyl)))diacetamide]	0.001 to 0.999 nM	–
CCN(CC)[C@@H](C(=O)N1CCC[C@H]1c1ncc(-c2ccc(-c3ccc(-c4[nH]c([C@@H]5CCCN5C(=O)[C@@H](c5ccccc5)N(CC)CC)nc4C(F)(F)F)cc3)cc2)[nH]1)c1ccccc1 [Example J40]	0.001 to 0.999 nM	–
CCN(CC)[C@@H](C(=O)N1CCC[C@H]1c1ncc(-c2ccc(-c3ccc(-c4cnc([C@@H]5CCCN5C(=O)[C@H](Cc5cccnc5)NC(=O)OC)[nH]4)cc3)cc2)[nH]1)c1ccccc1 [cj-84, methyl ((1S)-2-((2S)-2-(5-(4′-(2-((2S)-1-((2R)-2-(diethylamino)-2-phenylacetyl)-2-pyrrolidinyl)-1H-imidazol-5-yl)-4-biphenylyl)-1H-imidazol-2-yl)-1-pyrrolidinyl)-2-oxo-1-(3-pyridinylmethyl)ethyl)carbamate]	0.001 to 0.999 nM	–
CCN(CC)[C@@H](C(=O)N1CCC[C@H]1c1ncc(-c2ccc(-c3ccc(-c4cnc([C@@H]5CCCN5C(=O)[C@@H](c5ccccc5)N(CC)CC)[nH]4)c(F)c3)cc2)[nH]1)c1ccccc1 [Example D47, (1R,1′R)-2,2′-((3-fluoro-4,4′-biphenyldiyl)bis(1H-imidazole-5,2-diyl(2S)-2,1-pyrrolidinediyl))bis (N,N-diethyl-2-oxo-1-phenylethanamine)]	0.001 to 0.999 nM	–
CCN(CC)[C@H](C)C(=O)N1CCC[C@H]1c1ncc(-c2ccc(-c3ccc(-c4cnc([C@@H]5CCCN5C(=O)[C@H](C)NC(=O)OC)[nH]4)cc3)cc2)[nH]1 [Example M96, methyl ((1S)-2-((2S)-2-(5-(4′-(2-((2S)-1-(N,N-diethyl-D-alanyl)-2-pyrrolidinyl)-1H-imidazol-5-yl)-4-biphenylyl)-1H-imidazol-2-yl)-1-pyrrolidinyl)-1-methyl-2-oxoethyl)carbamate]	100 to 999 nM	–
COC(=O)N[C@@H](Cc1c[nH]nn1)C(=O)N1CCC[C@H]1c1ncc(-c2ccc(-c3ccc(-c4cnc([C@@H]5CCCN5C(=O)[C@H](Cc5c[nH]nn5)NC(=O)OC)[nH]4)cc3)cc2)[nH]1 [cj-125, methyl ((1S)-2-((2S)-2-(5-(4′-(2-((2S)-1-((2S)-2-((methoxycarbonyl)amino)-3-(1H-1,2,3-triazol-4-yl)propanoyl)-2-pyrrolidinyl)-1H-imidazol-5-yl)-4-biphenylyl)-1H-imidazol-2-yl)-1-pyrrolidinyl)-2-oxo-1-(1H-1,2,3-triazol-4-ylmethyl)ethyl)carbamate]	1 to 99 nM	–
COC(=O)N[C@@H](C(=O)N1CCC[C@H]1c1ncc(-c2ccc(-c3ccc(-c4cnc([C@@H]5CCCN5C(=O)C5(c6ccc(Cl)cc6)CC5)[nH]4)cc3)cc2)[nH]1)c1ccccc1 [Example 84-78, methyl ((1R)-2-((2S)-2-(5-(4′-(2-((2S)-1-((1-(4-chlorophenyl)cyclopropyl)carbonyl)-2-pyrrolidinyl)-1H-imidazol-5-yl)-4-biphenylyl)-1H-imidazol-2-yl)-1-pyrrolidinyl)-2-oxo-1-phenylethyl)carbamate]	0.001 to 0.999 nM	–
O=C(C(c1ccccc1)N1CC[C@H](F)C1)N1CCC[C@H]1c1ncc(-c2ccc(-c3ccc(-c4cnc([C@@H]5CCCN5C(=O)C(c5ccccc5)N5CC[C@H](F)C5)[nH]4)cc3)cc2)[nH]1 (stereo partly drawn) [Example 20, 5,5′-(4,4′-biphenyldiyl)bis(2-((2S)-1-(((3S)-3-fluoro-1-pyrrolidinyl)(phenyl)acetyl)-2-pyrrolidinyl)-1H-imidazole)]	–	1 to 99 nM
COC(=O)N[C@@H](C(=O)N(C)[C@@H](C)c1ncc(-c2ccc(-c3ccc(-c4cnc([C@H](C)N(C)C(=O)[C@H](NC(=O)OC)c5ccccc5)[nH]4)cc3)cc2)[nH]1)c1ccccc1 [Example 24-18-1, dimethyl (4,4′-biphenyldiylbis(1H-imidazole-5,2-diyl(1S)-1,1-ethanediyl(methylimino)((1R)-2-oxo-1-phenyl-2,1-ethanediyl)))biscarbamate]	0.001 to 0.999 nM	–
COC(=O)N[C@@H](C(=O)N1CCC[C@H]1c1ncc(-c2ccc(-c3ccc(-c4cnc([C@@H]5CCCN5C(=O)C(c5ccccc5)N5CCC(O)CC5)[nH]4)cc3)cc2)[nH]1)c1ccccc1 (stereo partly drawn) [Example 64, methyl ((1R)-2-((2S)-2-(5-(4′-(2-((2S)-1-((4-hydroxy-1-piperidinyl)(phenyl)acetyl)-2-pyrrolidinyl)-1H-imidazol-5-yl)-4-biphenylyl)-1H-imidazol-2-yl)-1-pyrrolidinyl)-2-oxo-1-phenylethyl)carbamate]	0.001 to 0.999 nM	–
COC(=O)N[C@H](C(=O)N1CCC[C@H]1c1nc(-c2ccc(-c3ccc(-c4cnc([C@@H]5CCCN5C(=O)[C@H](NC(=O)OC)C5CCOCC5)[nH]4)cc3)cc2)c[nH]1)C(C)C [Example F57, methyl ((1S)-1-(((2S)-2-(4-(4′-(2-((2S)-1-((2R)-2-((methoxycarbonyl)amino)-2-(tetrahydro-2H-pyran-4-yl)acetyl)-2-pyrrolidinyl)-1H-imidazol-5-yl)-4-biphenylyl)-1H-imidazol-2-yl)-1-pyrrolidinyl)carbonyl)-2-methylpropyl)carbamate]	0.001 to 0.999 nM	–
COC(=O)N[C@@H](Cc1ccccc1)C(=O)N1CCC[C@H]1c1ncc(-c2ccc(-c3ccc(-c4cnc([C@@H]5CCCN5C(=O)[C@H](Cc5ccccc5)NC(=O)OC)[nH]4)cc3)cc2)[nH]1 [cj-148, methyl ((1S)-1-benzyl-2-((2S)-2-(5-(4′-(2-((2S)-1-((2S)-2-((methoxycarbonyl)amino)-3-phenylpropanoyl)-2-pyrrolidinyl)-1H-imidazol-5-yl)-4-biphenylyl)-1H-imidazol-2-yl)-1-pyrrolidinyl)-2-oxoethyl)carbamate]	1 to 99 nM	–
CC(C)CC(=O)N1[C@@H](C)CC[C@H]1c1nc(-c2ccc(-c3ccc(-c4c[nH]c([C@@H]5CC[C@H](C)N5C(=O)CC(C)C)n4)cc3)cc2)c[nH]1 [Example M158, 4,4′-(4,4′-biphenyldiyl)bis(2-((2S,5S)-5-methyl-1-(3-methylbutanoyl)-2-pyrrolidinyl)-1H-imidazole)]	1 to 99 nM	–
COC(=O)N[C@@H](C)C(=O)N1CCC[C@H]1c1ncc(-c2ccc(-c3ccc(-c4cnc([C@@H]5CCCN5C(=O)[C@H](C)NC(=O)OC)[nH]4)c(F)c3)cc2)[nH]1 [Example D45, methyl ((1S)-2-((2S)-2-(5-(3′-fluoro-4′-(2-((2S)-1-(N-(methoxycarbonyl)-L-alanyl)-2-pyrrolidinyl)-1H-imidazol-5-yl)-4-biphenylyl)-1H-imidazol-2-yl)-1-pyrrolidinyl)-1-methyl-2-oxoethyl)carbamate]	0.001 to 0.999 nM	–
COC(=O)N[C@@H](C(=O)N1CCC[C@H]1c1ncc(-c2ccc(-c3ccc(-c4cnc([C@@H]5CCCN5C(=O)[C@@H]5C[C@@H](F)CN5)[nH]4)cc3)cc2)[nH]1)c1ccccc1 [Example 82, methyl ((1R)-2-((2S)-2-(5-(4′-(2-((2S)-1-((4R)-4-fluoro-L-prolyl)-2-pyrrolidinyl)-1H-imidazol-5-yl)-4-biphenylyl)-1H-imidazol-2-yl)-1-pyrrolidinyl)-2-oxo-1-phenylethyl)carbamate]	0.001 to 0.999 nM	–
